From patent publication US4797417A, “Furanone derivatives, process for preparation thereof and use thereof” (Fujisawa Pharmaceutical Co., Ltd., priority 1982, dated 1989)

target: T1, aldose reductase (Oryctolagus cuniculus, UniProt P15122); assay: Aldose reductase-inhibiting activity, enzymatic assay (decrease in NADPH, D,L-glyceraldehyde substrate, rabbit lens enzyme solution); type: biochemical; conditions: IC50 (M), concentration at which the aldose reductase activity is inhibited by 50%, pH 6.2, 35° C., 2 minutes
T1 construct: The lenses were homogenized with 3 volumes of distilled water at 4° C; from tissue; host or cells: rabbit lens (homogenate, 10,000 G supernatant, dialysed)
Description: (1) Enzymatic assay method:
The above reactants were mixed and reacted at 35° C. for 2 minutes and the decrease in amount of NADPH was measured with an Automatic Reaction Rate Analyzer Model LKB-8600 of LKB Producter A. B. The enzyme activity at achange in absorbance of 0.001 per minute was taken as unity.
(2) Method for preparing an enzyme solution
Rabbit eyes were enucleated and the lenses collected. The lenses were homogenized with 3 volumes of distilled water at 4° C. (All the subsequent procedures were also performed at 4° C.) and centrifuged at 10,000 G for 60 minutes. The supernatant was dialyzed against 2 liters of 0.05 M of saline solution and the interal fluid was used as the enzyme solution.

Structure (SMILES) | IC50
COC1=C(c2cccc(C(F)(F)F)c2)C(CCC(=O)O)OC1=O (stereo not drawn) [Example 20, 3-[4-Methoxy-5-oxo-3-(3-trifluoromethylphenyl)2,5-dihydro-2-furyl]propionicacid] | 4.8e-07 M

same assay, conditions: concentration at which the aldose reductase activity is inhibited by 50%, pH 6.2, 35° C., 2 minutes, read-out: IC50

IC50 | Structure (SMILES)
2.2e-07 M | COC1=C(c2ccccc2)C(CCC(=O)O)OC1=O (stereo not drawn) [Example 18, 3-(4-Methoxy-5-oxo-3-phenyl-2,5-dihydro-2-furyl)propionic acid]
5e-08 M | CCCCCOC1=C(c2ccccc2)C(CCC(=O)O)OC1=O (stereo not drawn) [Example 17, 3-(5-oxo-4-pentyloxy-3-phenyl2,5-dihydro-2-furyl)propionicacid]
5.4e-07 M | O=C(O)CCC1OC(=O)C=C1c1ccccc1 (stereo not drawn) [Example 29-8, 3-(2,5-dihydro5-oxo-3-phenyl-2-furyl)propionic acid]
2.5e-06 M | O=C(O)CCC1OC(=O)C(O)=C1c1ccccc1 (single isomer, unassigned) [Example 30-2, (d)-3-(4-hydroxy5-oxo-3-phenyl-2,5-dihydro-2-furyl)propionic acid]
2e-07 M | CCOC1=C(c2ccccc2)C(CCC(=O)O)OC1=O (stereo not drawn) [Example 22, 3-(4-ethoxy-5-oxo-3-phenyl2,5-dihydro-2-furyl)propionic acid]
2.2e-07 M | CCOC(=O)CCC1OC(=O)C(OC)=C1c1ccccc1 (stereo not drawn) [Example 4, ethyl 3-(4-methoxy-5-oxo-3-phenyl-2,5-dihydro-2-furyl)propionate]
1.5e-07 M | COC1=C(c2ccc(Cl)cc2)C(CCC(=O)O)OC1=O (stereo not drawn) [Example 19, 3-[3-(4-Chlorophenyl)-4-methoxy-5-oxo-2,5-dihydro-2-furyl]propionic acid]
5.4e-07 M | O=C(O)CCC1OC(=O)C(O)=C1c1ccccc1 (single isomer, unassigned) [Example 30-3, (l)-3-(4-hydroxy-5-oxo-3-phenyl-2,5-dihydro-2-furyl)propionic acid]
